Test results reported in patent US20230285380A1, “DUAL TREATMENT OF MIGRAINE” (priority 2021, published 2023).

Legend:
[1] = system: patients with moderate to severe intensity migraine; assay: large open-label Phase 2 trial of rimegepant; format: in vivo, human
Description: The goal of our strategy is to deliver one medication to address patients' needs for treating their migraines.

[2] = BHV3000-305 study: adverse events and liver safety on double-blind treatment
[3] = system: patients with episodic and chronic migraine; assay: BHV3000-305 Phase 2/3 randomized, double-blind, placebo-controlled study of rimegepant in migraine prevention (NCT03732638): efficacy; format: in vivo, human
Experimental: Clinical Trial—BHV3000-305: A Phase ⅔, Randomized, Double-blind, Placebo-controlled Study to Evaluate the Efficacy and Safety of Rimegepant in Migraine Prevention (ClinicalTrials.gov Identifier: NCT03732638).
A phase ⅔ clinical study was conducted with 1629 participants, as follows.
The purpose of this is study is to compare the efficacy of BHV-3000 (rimegepant) to placebo as a preventive treatment for migraine, as measured by the reduction in the number of migraine days per month.
Study Design • Study Type: Interventional (Clinical Trial) • Actual Enrollment: 1629 participants • Allocation: Randomized • Intervention Model: Parallel Assignment • Masking: Triple (Participant, Care Provider, Investigator) • Primary Purpose: Prevention • Official Title: A Phase ⅔, Randomized, Double-blind, Placebo-controlled Study to Evaluate the Efficacy and Safety of Rimegepant in Migraine Prevention • Actual Study Start Date: Nov. 14, 2018 • Actual Primary Completion Date: Dec. 10, 2019 • Estimated Study Completion Jan. 30, 2021 • Date:
Primary Outcome Measures: • 1. Change from baseline in mean number of migraine days per month [Time Frame: Mean number of migraine days per month as assessed over 3 months (12 weeks)] Change from baseline in mean number of migraine days per month as measured over the 12-week double-blind phase of the study.
Secondary Outcome Measures: • 1. Achievement of at least a 50% reduction from baseline in mean number of moderate to severe monthly migraine days. [Time Frame: baseline to end of Week 12] Achievement of at least a 50% reduction from baseline in mean number of moderate to severe monthly migraine days over course of the double-blind treatment phase. • 2. The mean number of rescue medication days per month. [Time Frame: baseline to end of week 12 as measure per month] The mean number of rescue medication days per month over the course of the double-blind, treatment phase. Rescue medications include the rescue medications defined in this protocol. • 3. Adverse events. [Time Frame: baseline to end of Week 12] Adverse events that occur in at least 5% of treated subjects; the frequency of unique subjects with serious adverse events, adverse events leading to discontinuation and clinically significant laboratory abnormalities, as reported on case report forms. • 4. The frequency of AST or ALT elevations. [Time Frame: baseline to end of Week 12] The frequency of AST or ALT elevations >3×ULN, concurrently with bilirubin elevations >2× ULN, will be assessed by tabulating the number of unique subjects with this pairing of events. • 5. The frequency of hepatic-related adverse events and hepatic-related treatment. [Time Frame: baseline to end of Week 12] The frequency of hepatic-related adverse events and hepatic-related treatment discontinuations will be tabulated from case report forms and will be based on unique subjects reporting such events. • 6. The mean change from baseline in the MSQ role function [Time Frame: baseline to end of Week 12] The mean change from baseline in the MSQ role function—restrictive domain score at Week 12 of the double-blind treatment phase. • 7. The mean change from baseline in the MIDAS total score. [Time Frame: baseline to end of Week 12]
The mean change from baseline in the MIDAS total score at Week 12 of the double-blind treatment phase.
This pivotal study enrolled patients with both episodic and chronic migraine. The study evaluated the efficacy and safety of rimegepant 75 mg (n=370) dosed every other day for the preventive treatment of migraine in patients versus placebo (n=371) who had migraine for at least one year and 4 to 18 moderate to severe migraine attacks per month over three months prior to enrollment. During the one-month observation period, patients experienced on average 10.7 migraine days per month, with 7.4 migraine days of moderate to severe migraine during the same period.

[4] = 370 patients, rimegepant 75 mg every other day
[5] = Severity: Mild, Treated Subjects N = 370
[6] = Severity: Moderate or Severe, Treated Subjects N = 370
[7] = Severity: Moderate, Treated Subjects N = 370
[8] = Severity: Total, Treated Subjects N = 370

## N[C@@H]1c2cccnc2[C@H](OC(=O)N2CCC(n3c(=O)[nH]c4ncccc43)CC2)CC[C@H]1c1cccc(F)c1F [Rimegepant, [(5S,6S,9R)-5-amino-6-(2,3-difluorophenyl)-6,7,8,9-tetrahydro-5H-cyclohepta[b]pyridin-9-yl] 4-(2-oxo-3H-imidazo[4,5-b]pyridin-1-yl)piperidine-1-carboxylate]
[1]
  reduction in migraine days per month: ≤ 5.3 days
[2]; [4]
  cases of ALT or AST >3×ULN and bilirubin >2×ULN: no cases
  independent liver monitoring panel assessment of ALT/AST elevations: did not determine any ALT/AST elevations to be in the categories of probably or definitely related to study drug
  safety profile: consistent with prior clinical trial experience
[2]; [5]
  Enterobiasis: 0 n
  Folliculitis: 0 n
  Oral candidiasis: 0 n
  Orchitis: 0 n
  Otitis media: 0 n
[2]; [6]
  Acute sinusitis: 0 n
  Appendicitis: 0 n
  Bacterial vaginosis: 0 n
  Herpes zoster: 0 n
  Pharyngitis streptococcal: 0 n
  Pneumonia: 0 n
  Pyelonephritis: 0 n
  Sepsis: 0 n
[2]; [7]
  Acute sinusitis: 0 n
  Appendicitis: 0 n
  Bacterial vaginosis: 0 n
  Herpes zoster: 0 n
  Pharyngitis streptococcal: 0 n
  Sepsis: 0 n
[2]; [8]
  Acute sinusitis: 0 n
  Appendicitis: 0 n
  Enterobiasis: 0 n
  Folliculitis: 0 n
  Oral candidiasis: 0 n
  Orchitis: 0 n
  Otitis media: 0 n
  Pelvic inflammatory disease: 0 n
  Pertussis: 0 n
  Pharyngitis streptococcal: 0 n
  Pneumonia: 0 n
  Pyelonephritis: 0 n
  Sepsis: 0 n
  Tooth infection: 0 n
[3]; 95% CI (0.23, 6.70), P-value 0.0358
  MSQoL Restrictive Role Function Domain Score Change From Baseline at Week 12, Difference (Rimegepant − Placebo): 3.5
[3]; 95% CI (−0.6, 14.1), P-value 0.0734
  >=50% Reduction in Moderate or Severe Migraine Days per Month in Last Month, Stratified Risk Difference (Rimegepant − Placebo): 6.7
[3]; 95% CI (−0.80, 0.31), P-value 0.3868
  Rescue Medication Days per Month in Last Month, Difference (Rimegepant − Placebo): −0.2 Days per Month
[3]; 95% CI (−1.23, −0.17), P-value 0.0094
  Change From OP in Mean Number of Total Migraine Days per Month Overall, Difference (Rimegepant − Placebo): −0.7 Days per Month
[3]; 95% CI (−1.42, −0.14), P-value 0.0176, significant in hierarchical testing
  Change From OP in Mean Number of Total Migraine Days per Month in Last Month, Difference (Rimegepant − Placebo): −0.8 Days per Month
[3]; 95% CI (−1.49, −0.36), P-value 0.0013
  Change From OP in Mean Number of Total Migraine Days per Month In First Month, Difference (Rimegepant − Placebo): −0.9 Days per Month
[3]; 95% CI (−4.74, 4.51), P-value 0.9616
  MIDAS Total Score Change From Baseline at Week 12, Difference (Rimegepant − Placebo): −0.1
[3]; evaluable mITT
  >=50% Reduction From OP in Mean Number of Moderate or Severe Migraine Days per Month in Last Month, Response Rate (n/N): 167/348
[3]; evaluable mITT N = 348, 75 mg every other day, 95% CI (−4.95, −3.97)
  Primary Endpoint: Change From OP in Mean Number of Total Migraine Days per Month in Last Month, Least-squares mean: −4.5 Days per Month
[3]; evaluable mITT N = 348, 95% CI (3.29, 4.15)
  Rescue Medication Days per Month in Last Month, Least-squares mean: 3.7 Days per Month
[3]; evaluable mITT N = 348, 95% CI (−3.04, −2.17)
  Change From OP in Mean Number of Total Migraine Days per Month In First Month, Least-squares mean: −2.6 Days per Month
[3]; evaluable mITT N = 348, 95% CI (−3.94, −3.12)
  Change From OP in Mean Number of Total Migraine Days per Month Overall, Least-squares mean: −3.5 Days per Month
[3]; n 269, 95% CI (15.54, 20.56)
  MSQoL Restrictive Role Function Domain Score Change From Baseline at Week 12, Least-squares mean: 18.0
[3]; n 269, 95% CI (−15.41, −8.21)
  MIDAS Total Score Change From Baseline at Week 12, Least-squares mean: −11.8
[3]; participants not taking concomitant preventive treatment
  reduction in mean number of migraine days as compared to placebo, (4.9-3.7)/3.7*100: 32%
[3]; rimegepant 75 mg every other day, vs 3.7 day in placebo group, p=0.0176
  reduction from baseline in monthly migraine days: 4.5 days
[3]; rimegepant group n=273, vs 3.7 day in placebo group (n=269)
  reduction from baseline in monthly migraine days, participants not taking concomitant preventive treatment: 4.9 days
[3]; stratified by prophylactic migraine medication use, 95% CI (42.7, 53.2)
  >=50% Reduction From OP in Mean Number of Moderate or Severe Migraine Days per Month in Last Month, Stratified Risk: 48.0
[3]; vs 41% in the placebo group
  share of group with at least a 50% reduction from baseline in the mean number of moderate to severe migraine days per month: 48%
